From patent EP0343268A1, “Pharmaceutical composition and process for preparing the same” (BIOGAL GYOGYSZERGYAR, priority 1988, dated 1989)

Experiments:
[1] = in the presence of sulfhydryl-containing compounds, particularly acetylcysteine; cited from earlier work
[2] = test system: chronic mesotympanic otitis; test: Single-ingredient treatment of patients with chronic mesotympanic otitis; format: in vivo; conditions: 1% solution
Excerpt: (§1) Several compositions according to the invention were also studied with omitting one active ingredient of the composition in order to support the progressive character of the multi-active-component type composition according to the invention. These experiments led to the following results.

[3] = test system: external otitis; test: Single-ingredient treatment of patients with external otitis; format: in vivo; conditions: 1% solution
Excerpt: as §1

[4] = Single-ingredient treatment of patients (steroid alone; sulfhydryl compound solution alone); format: in vivo; conditions: aqueous solutions (pH 7.0±0.2) of 3 to 19%, preferably 5 to 15%
Excerpt: as §1
An objective improvement was observed only in those cases involving large eardrum defects, strong hyperaemia and significant mucous membrane hypertrophy of the tympanic cavity as well as in the cases of external eczematous otitis (otitis externa ekzematosa).
The dilution of the discharge was not observed during the use,however, the amount of the discharge was somewhat reduced in spite of the decrease of its viscosity. The discharge, which was coherent and mucous in character, rather took the form of a precipitate under effect of the treatment by an acetylcysteine solution.

[5] = cited from earlier work
[6] = cited from earlier work; remark: listed apart in the source
[7] = cited from earlier work; remark: listed apart in the source
[8] = test system: several gram-positive and gram-negative bacteria such as Pseudomonas aeruginosa; conditions: in vitro conditions; cited from earlier work
[9] = In vitro mucolytic effect on ear discharges
[10] = test system: pathogenic microorganisms occurring in the discharges of patients suffering from chronic otitis (otitis media chronica); test: Treatment of ear discharges by antibacterial agents (sensitivity of the pathogens); format: cell-based
Description: In the Department for Qtorhinolaryngology of the Medical University of Debrecen, adult and child patients were examined to identify the types of pathogenic microorganisms occurring in the discharges of patients suffering from chronic otitis (otitis media chronica); the discharges of 510 patients were analyzed for the bacterial infection.

[11] = number of cases, total number of the examinations 510

CC[C@H]1OC(=O)[C@H](C)[C@@H](O[C@H]2C[C@@](C)(OC)[C@@H](O)[C@H](C)O2)[C@H](C)[C@@H](O[C@@H]2O[C@H](C)C[C@H](N(C)C)[C@H]2O)[C@](C)(O)C[C@@H](C)C(=O)[C@H](C)[C@@H](O)[C@]1(C)O [Erythromycin]
absorption from the stomach [1]: not disadvantageously influenced

NC[C@H]1O[C@H](O[C@H]2[C@H](O)[C@@H](O[C@H]3O[C@H](CO)[C@@H](O)[C@H](N)[C@H]3O)[C@H](N)C[C@@H]2N)[C@H](N)C[C@@H]1O [Tobramycin]
substantial improvement of the pathological processes [2]: about 60 % of patients | substantial improvement of the pathological processes [3]: ≤ 40% | absorption from the stomach [1]: not disadvantageously influenced

CC(=O)N[C@@H](CS)C(=O)O [acetylcysteine, N-acetyl-L-cysteine]
inflammatory symptomes [4]: moderated | viscosity of the discharge [4]: advantageously influenced | LD₅₀ in dogs [5]: 1000 mg/kg of body-weight | LD₅₀ in rats [6]: 6000 mg/kg of body-weight | LD₅₀ in mice [7]: 3000 mg/kg of body-weight | effect with several antibiotics [8]: synergistic effect

CC1(C)S[C@@H]2[C@H](NC(=O)[C@H](N)c3ccc(O)cc3)C(=O)N2[C@H]1C(=O)O [amoxicillin]
absorption from the stomach [1]: not disadvantageously influenced

N[C@@H](CSCC(=O)O)C(=O)O [carbocysteine]
mucolytic effect [9]: a mucolytic effect can also be shown

O=C(O)C(S)C(S)C(=O)O (stereo not shown) [dimercaptosuccinate]
mucolytic effect [9]: a mucolytic effect can also be shown

O[C@H](CS)[C@@H](O)CS [dithioerythritol]
mucolytic effect [9]: a mucolytic effect can also be shown

C[C@H]1c2cccc(O)c2C(O)=C2C(=O)[C@]3(O)C(O)=C(C(N)=O)C(=O)[C@@H](N(C)C)[C@@H]3[C@@H](O)[C@@H]21 [doxycyclin]
absorption from the stomach [1]: not disadvantageously influenced

N[C@@H](CCC(=O)N[C@@H](CS)C(=O)NCC(=O)O)C(=O)O [glutathione]
mucolytic effect [9]: a mucolytic effect can also be shown

CC(C)(CO)[C@@H](O)C(=O)NCCC(=O)NCCS [pantetheine]
mucolytic effect [9]: a mucolytic effect can also be shown

Neomycin
absorption from the stomach [1]: not disadvantageously influenced

Penicillin
A = therapeutically active (sensitive) [10, 11]: 67 | M = moderately active [10, 11]: 22 | R = inactive (resistant) [10, 11]: 218 | Act. = activity % ([10]; share of examined cases moderately active or active): 29.4%
